Residues, ends and D or L forms follow the SMILES beside them. *: point of attachment. Cbz = O=C(OCc1ccccc1)*; NHOH = ON*
Experiments:
[1] = target: T1, type IV collagenases (Homo sapiens, UniProt P08253); assay: Inhibitory activity on type IV collagenases: cleavage of radio-labelled type IV collagen; assay type: biochemical; conditions: type IV collagenases from serum-free culture medium of human melanoma cells; radio-labelled type IV collagen from mouse EHS tumor as substrate
T1 construct: type IV collagenases prepared from a serum-free culture medium of human melanoma cells; endogenous in cells
T1 sequence (P08253 110-660): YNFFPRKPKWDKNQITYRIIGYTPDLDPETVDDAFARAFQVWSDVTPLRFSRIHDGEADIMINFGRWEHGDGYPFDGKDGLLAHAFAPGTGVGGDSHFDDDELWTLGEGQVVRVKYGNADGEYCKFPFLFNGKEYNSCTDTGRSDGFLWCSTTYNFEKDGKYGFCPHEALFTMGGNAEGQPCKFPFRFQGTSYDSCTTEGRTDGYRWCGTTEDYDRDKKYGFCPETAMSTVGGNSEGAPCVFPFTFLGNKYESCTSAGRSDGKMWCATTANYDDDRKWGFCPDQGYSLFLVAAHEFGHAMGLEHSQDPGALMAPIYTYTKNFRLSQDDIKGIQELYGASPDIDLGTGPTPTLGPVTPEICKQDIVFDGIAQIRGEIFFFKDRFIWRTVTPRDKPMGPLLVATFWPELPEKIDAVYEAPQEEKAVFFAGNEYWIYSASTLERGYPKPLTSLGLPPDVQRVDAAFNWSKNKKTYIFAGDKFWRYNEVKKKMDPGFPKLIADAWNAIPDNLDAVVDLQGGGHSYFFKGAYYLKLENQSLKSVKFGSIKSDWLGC
Method: The activity of type IV collagenase was assayed according to the method of Salo et al. [J. Biol. Chem., Vol. 258, 3058-3063 (1983)].
In detail, the activity was assayed by measuring the cleavage of collagen by using type IV collagenases prepared from a serum-free culture medium of human melanoma cells, and type IV collagen prepared from mouse EHS tumor radio-labelled as a substrate.
The inhibitory activity on type IV collagenases was measured by calculating the inhibition percent of the enzyme reaction, in which the test samples were added to the reaction mixture.
The results (expressed as I50) is shown below.

[2] = test system: collagenase; conditions: cited from earlier work
[3] = test system: bacteria; conditions: cited from earlier work
[4] = test system: aminopeptidase M; conditions: low concentrations; cited from earlier work
[5] = test system: cancer metastasis; conditions: animal experiment; cited from earlier work
[6] = test system: type IV collagenases; conditions: cited from earlier work

| IC50 [1] | Compound | further results |
| --- | --- | --- |
| 200 nM | CCCCCCCC[C@H](CC(=O)NO)C(=O)N1NCCC[C@H]1C(=O)N(CC)CC [Example 35, N^2-[2-(R)-(Hydroxyaminocarbonyl)methyl-1-oxodecyl]-(S)-piperazic acid N,N-diethylamide] |  |
| 330 nM | CCCCC[C@H](CC(=O)NO)C(=O)N1NCCC[C@H]1C(=O)N[C@H](C(=O)N(C)OC)C(C)C [Example 3, 2-(S)-[N^2-[2-(R)-(Hydroxyaminocarbonyl)methyl-1-oxoheptyl]-(S)-piperazyl]aminoisovaleric acid N-methyl-N-methoxyamide] |  |
| 4300 nM | CCCCC[C@H](CC(=O)NO)C(=O)N1NCCC[C@H]1C(=O)N[C@@H](C(=O)CC)[C@H](C)CC [Example 109, N^2-[2-(R)-(Hydroxyaminocarbonyl)methyl-1-oxoheptyl]-(S)-piperazic acid (4R,5R)-5-methyl-3-oxoheptan-4-ylamide, reference compound] |  |
| 360 nM | CCCCC[C@H](CC(=O)NO)C(=O)N1NCCC[C@H]1C(=O)N[C@H](C(=O)OC(C)(C)C)C(C)C [Example 5] |  |
|  | CC(C)C[C@H](NC(=O)[C@@H]1CCCN1C(=O)OCc1ccccc1)C(=O)NCC(=O)NO [benzyloxycarbonyl propyl-leucyl-glycylhydroxamic acid] (Cbz-Pro-Leu-Gly-{NHOH}) | collagenase inhibiting activity [2]: showing collagenase inhibiting effects |
| 73 nM | CNC(=O)[C@@H]1CCCNN1C(=O)[C@H](CCc1ccccc1)CC(=O)NO [Example 20, N^2-[2-(R)-(Hydroxyaminocarbonyl)methyl-1-oxo-4-phenylbutyl]-(S)-piperazic acid N-methylamide] |  |
| 250 nM | CCCCC[C@H](CC(=O)NO)C(=O)N1NCCC[C@H]1C(N)=O [Example 29, N^2-[2-(R)-(Hydroxyaminocarbonyl)methyl-1-oxoheptyl]-(S)-piperazylamide] |  |
|  | CCCCCC(CC(=O)NO)C(=O)N1NCCCC1C(=O)NC(CC(C)C)C(C)=O (stereo not drawn) | antibacterial activity [3]: antibacterial; collagenase inhibiting activity [2]: collagenase inhibiting activities |
| 42 nM | CCCCCCC[C@H](CC(=O)NO)C(=O)N1NCCC[C@H]1C(=O)NC [Example 16, N^2-[2-(R)-(Hydroxyaminocarbonyl)methyl-1-oxononyl]-(S)-piperazic acid N-methylamide] |  |
| 750 nM | CC(C)C[C@H](CC(=O)NO)C(=O)N1NCCC[C@H]1C(=O)N(C)C [Example 32, N^2-[2-(R)-(Hydroxyaminocarbonyl)methyl-1-oxo-4-methyl-pentyl]-(S)-piperazic acid N,N-dimethylamide] |  |
| 1400 nM | CCCCC[C@H](CC(=O)NO)C(=O)N1NCCC[C@H]1C(=O)N[C@H](C(=O)CC)[C@@H](C)CC [Example 108, reference compound] |  |
| 27 nM | CCCCCCCCCC[C@H](CC(=O)NO)C(=O)N1NCCC[C@H]1C(=O)NC [Example 18, N^2-[2-(R)-(Hydroxyaminocarbonyl)methyl-1-oxododecyl]-(S)-piperazic acid N-methylamide] |  |
| 270 nM | CCCCCCC[C@H](CC(=O)NO)C(=O)N1NCCC[C@H]1C(=O)N(C)C [Example 17, N^2-[2-(R)-(Hydroxyaminocarbonyl)methyl-1-oxononyl]-(S)-piperazic acid N,N-dimethylamide] |  |
| 37 nM | CCCCCCCC[C@H](CC(=O)NO)C(=O)N1NCCC[C@H]1C(=O)NCC [Example 34, N^2-[2-(R)-(Hydroxyaminocarbonyl)methyl-1-oxodecyl]-(S)-piperazic acid N-ethylamide] |  |
| 18500 nM | CCCCC[C@H](CC(=O)NO)C(=O)N1NCCC[C@@H]1C(=O)N[C@H](C(=O)CC)[C@@H](C)CC [Example 110, N^2-[2-(R)-(Hydroxyaminocarbonyl)methyl-1-oxoheptyl]-(R)-piperazic acid (4S,5S)-methyl-3-oxoheptan-4-ylamide, reference compound] |  |
| 64 nM | CCCCCCCC[C@H](CC(=O)NO)C(=O)N1NCCC[C@H]1C(=O)N(C)C [Example 33, N^2-[2-(R)-(Hydroxyaminocarbonyl)methyl-1-oxodecyl]-(S)-piperazic acid N,N-dimethylamide] |  |
| 240 nM | CCCCC[C@H](CC(=O)NO)C(=O)N1NCCC[C@H]1C(=O)NCC(C)C [Example 30, N^2-[2-(R)-(Hydroxyaminocarbonyl)methyl-1-oxoheptyl]-(S)-piperazic acid N-isobutylamide] |  |
| 280 nM | CN(C)C(=O)[C@@H]1CCCNN1C(=O)[C@H](CCc1ccccc1)CC(=O)NO [Example 21, N^2-[2-(R)-(Hydroxyaminocarbonyl)methyl-1-oxo-4-phenylbutyl]-(S)-piperazic acid N,N-dimethylamide] |  |
|  | CCCCC[C@H](CC(=O)NO)C(=O)N[C@H](C(=O)N1CCC[C@H]1CO)C(C)C [actinonin] | inhibition of aminopeptidase M [4]: inhibit aminopeptidase M at low concentrations |
| 160 nM | CCCCC[C@H](CC(=O)NO)C(=O)N1NCCC[C@H]1C(=O)NCC [Example 27, N^2-[2-(R)-(Hydroxyaminocarbonyl)methyl-1-oxoheptyl]-(S)-piperazic acid N-ethylamide] |  |
| 350 nM | CCCCC[C@H](CC(=O)NO)C(=O)N1NCCC[C@H]1C(=O)N[C@H](C(=O)OC)C(C)C [Example 4, Methyl 2-(S)-[N^2-[2-(R)-(Hydroxyaminocarbonyl)methyl-1-oxoheptyl]-(S)-piperazyl]aminoisovalerate] |  |
| 82 nM | CCCCCC[C@H](CC(=O)NO)C(=O)N1NCCC[C@H]1C(=O)NC [Example 14, N^2-[2-(R)-(Hydroxyaminocarbonyl)methyl-1-oxooctyl]-(S)-piperazic acid N-methylamide] |  |
|  | CNC(=O)[C@H](Cc1ccc(OC)cc1)NC(=O)[C@@H](CC(=O)NO)CC(C)C [SC 44463] | inhibitory activity on cancer metastasis [5]: confirmed to exhibit an inhibitory activity on cancer metastasis; inhibitor relatively specific to type IV collagenases [6]: inhibitor relatively specific to type IV collagenases |
|  | CCCCCC(CC(=O)NO)C(=O)N1NCCCC1C(=O)NC(C(=O)CC)C(C)CC (stereo not drawn) | antibacterial activity [3]: antibacterial activity |
| 80 nM | CCCCCCCCCC[C@H](CC(=O)NO)C(=O)N1NCCC[C@H]1C(=O)N(C)C [Example 19, N^2-[2-(R)-(Hydroxyaminocarbonyl)methyl-1-oxododecyl]-(S)-piperazic acid N,N-dimethylamide] |  |

From patent US5643908A, “Collagenase inhibitor” (Sankyo Company, Limited, priority 1991, dated 1997)
